Experimental data as given in US20110039770A1, “INHIBITORS OF PROTEIN KINASE C ISOFORMS AND USES THEREOF” (PHARMAGAP INC., priority 2005, published 2011).
Where a SMILES comes first, the peptide text is derived from it. The star is where a group is joined. PNA(A) = NCCN(CC(=O)*)C(=O)Cn1cnc2c(N)ncnc21

Tests used:
PKC-β = molecular target: T1, PKC-β (Homo sapiens, UniProt P05771); experiment: Competition of PRE with PKC-β antibody binding, Protocol A, IMR-32 lysate
T1 construct: PRE 2 and PRE 3 in IMR-32 Neuroblastoma Cells: Protocol A; endogenous in cells; host or cells: IMR-32 human neuroblastoma cells
T1 sequence (P05771 whole entry): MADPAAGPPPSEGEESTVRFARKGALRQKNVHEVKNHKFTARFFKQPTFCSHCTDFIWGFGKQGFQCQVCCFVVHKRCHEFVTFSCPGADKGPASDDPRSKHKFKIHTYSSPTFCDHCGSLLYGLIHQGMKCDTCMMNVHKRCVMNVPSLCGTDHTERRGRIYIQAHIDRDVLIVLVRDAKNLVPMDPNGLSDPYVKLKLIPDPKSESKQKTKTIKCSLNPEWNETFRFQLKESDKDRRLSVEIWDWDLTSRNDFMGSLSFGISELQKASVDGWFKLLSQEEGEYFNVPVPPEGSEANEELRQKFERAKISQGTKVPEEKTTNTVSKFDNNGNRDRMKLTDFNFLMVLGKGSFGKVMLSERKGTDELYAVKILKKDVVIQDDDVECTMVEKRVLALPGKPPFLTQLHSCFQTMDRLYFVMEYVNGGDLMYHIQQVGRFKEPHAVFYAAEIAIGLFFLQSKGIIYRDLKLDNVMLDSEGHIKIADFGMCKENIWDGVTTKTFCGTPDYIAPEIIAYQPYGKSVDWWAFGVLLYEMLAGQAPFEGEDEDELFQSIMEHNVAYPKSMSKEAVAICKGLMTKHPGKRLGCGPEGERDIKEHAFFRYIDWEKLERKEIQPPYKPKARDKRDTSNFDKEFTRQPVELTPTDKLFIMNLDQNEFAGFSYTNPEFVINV
Protocol: (§1) Cell lysates from either IMR-32 (human neuroblastoma) cells or C6Cx43 cells (rat glioma transfected cells overexpressing connexin 43) were obtained using standard protocols and the proteins of the lysate were separated by SDS PAGE electrophoresis and electrotransferred onto a nitrocellulose membrane. The membrane was incubated for 30 minutes in blocking buffer (TBST) containing the test peptide at either 5× or 20× the concentrations of the primary antibody. A primary polyclonal antibody specific for PKC-α (Santa Cruz Biotechnology, Inc., CA) was then added (15 μg/ml) and the membrane incubated for a further 45 minutes. Finally, the primary antibody was detected with a secondary antibody conjugated to alkaline phosphatase using standard procedures. The intensity of the band corresponding to PKC-α was assessed by scanning and densitometry using the Gel-Pro software (Media Cybernetics) to obtain relative band intensities (average of 3 replicas). Control assays were conducted as described above except that blocking buffer without peptide was used.
Peptides PRE 1, PRE 2 and PRE 3 (see Table 4) were tested for their ability to interfere with the binding of a PKC-β-specific polyclonal antibody (Santa Cruz Biotechnology, Inc.) to PKC-β using the general protocol described in Example 1. […] It is worth noting in this regard that PKC-α and PKC-β belong to the same sub-group of PKCs (cPKCs).

PKC-ε = experiment: Competition of PRE with PKC-ε antibody binding, Protocol B, IMR-32; design: species or system human
Protocol: Peptides PRE 2, PRE 3 and PRE 4 (see Table 4) were tested for their ability to interfere with the binding of isoform-specific polyclonal antibodies (Santa Cruz Biotechnology, Inc.) to […] using the general protocol described in Example 3. Two bands, representing alternate splicing variants of PKC-ε, were identified on the Western blot using this anti-PKC-ε antibody.

PKC-βI = PKC-βI (Homo sapiens, UniProt P05771); experiment: Competition of PRE with PKC-βI antibody binding, Protocol B, IMR-32; design: PKC-βII by PRE 3 and PRE 4 in IMR-32 Neuroblastoma; endogenous in cells; host or cells: IMR-32 human neuroblastoma cells; conditions: for Band Intensity: Protocol B (control 170.5)
PKC-βI, sequence (P05771 whole entry): as above
Protocol: (§2) The ability of the peptides PRE 2 and PRE 3 (see Table 4) to interfere with the binding of a PKC-α-specific polyclonal antibody (Santa Cruz Biotechnology, Inc.) to PKC-α was determined using a modified version of the protocol outlined above in which the test peptide was added directly to the cell extract prior to electrophoresis at a concentration of either 5× or 15× the concentration of the protein applied to each well of the gel for the Western blots (20 μg).
(§3) Peptides PRE 3 and PRE 4 (see Table 4) were tested for their ability to interfere with the binding of isoform-specific polyclonal antibodies (Santa Cruz Biotechnology, Inc.) to PKC-α, PKC-βI or PKC-βII using the general protocol described in Example 3.

PKC-βII = PKC-βII (Homo sapiens, UniProt P05771); experiment: Competition of PRE with PKC-βII antibody binding, Protocol B, IMR-32; design: PKC-βII by PRE 3 and PRE 4 in IMR-32 Neuroblastoma; endogenous in cells; host or cells: IMR-32 human neuroblastoma cells; conditions: Protocol B (control 98.6)
PKC-βII, sequence (P05771 1-673 isoform P05771-2): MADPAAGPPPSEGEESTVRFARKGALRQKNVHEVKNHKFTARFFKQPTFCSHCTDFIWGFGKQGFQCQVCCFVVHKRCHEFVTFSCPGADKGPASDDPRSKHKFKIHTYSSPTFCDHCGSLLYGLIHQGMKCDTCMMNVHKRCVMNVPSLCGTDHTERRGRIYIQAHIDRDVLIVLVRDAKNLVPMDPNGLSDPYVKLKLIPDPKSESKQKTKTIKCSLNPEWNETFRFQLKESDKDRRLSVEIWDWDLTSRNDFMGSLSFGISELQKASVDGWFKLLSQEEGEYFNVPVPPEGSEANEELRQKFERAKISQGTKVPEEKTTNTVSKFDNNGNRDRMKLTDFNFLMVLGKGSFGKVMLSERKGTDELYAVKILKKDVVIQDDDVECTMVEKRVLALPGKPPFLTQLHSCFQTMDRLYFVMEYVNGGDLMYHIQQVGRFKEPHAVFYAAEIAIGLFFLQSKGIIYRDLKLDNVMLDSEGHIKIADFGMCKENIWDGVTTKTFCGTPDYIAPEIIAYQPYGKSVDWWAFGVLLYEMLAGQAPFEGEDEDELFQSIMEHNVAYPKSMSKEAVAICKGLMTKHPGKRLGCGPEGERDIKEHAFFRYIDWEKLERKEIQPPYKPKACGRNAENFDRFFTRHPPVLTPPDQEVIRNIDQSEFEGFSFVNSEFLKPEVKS
Protocol: as §2, §3

PKC-α [1] = molecular target: T2, PKC-α (Homo sapiens, UniProt P17252); experiment: Competition of PRE with PKC-α antibody binding on Western blot, Protocol A, IMR-32 lysate; design: endogenous PKC-α in (A) untreated human neuroblastoma (IMR-32) cells; endogenous in cells; host or cells: IMR-32 human neuroblastoma cells; conditions: IMR-32 cells
Protocol: The ability of the PRE 1, 2 and 3 (see Table 3 above) to interfere with the binding of a PKC-α-specific polyclonal antibody to PKC-α was determined using the following protocol.
as §1
The results are expressed as relative band intensity and as a percentage of the intensity of the corresponding band in the control assay (“Relative intensity (%)”). “% inhibition” relates to the percentage of the PKC-α band that is inaccessible to the antibody.

PKC-α [2] = molecular target: T2, PKC-α; experiment: as above; design: endogenous PKC-α in (A) untreated human neuroblastoma (IMR-32) cells; endogenous in cells; host or cells: IMR-32 human neuroblastoma cells; conditions: IMR-32 cells; remark: listed apart in the source
[3] = tested on: CCD-16Lu normal immortalized human lung fibroblasts; experiment: Proliferation of normal lung cells (protocol of Example 14); type: cell-based
[4] = Acute toxicity studies in mice (IV, topical, oral); type: in vivo, mouse
Protocol: Acute toxicity studies were performed on mice using three different delivery routes: IV (tail), topical and oral. […] The LD50 obtained from the IV study was determined to be 750 μg-1 mg per mouse. The “no observed adverse effect level” was determined to be 250 μg per mouse, approximately twice the concentration of TIM 10 provided to mice in the studies discussed above.

[5] = Flocculation of blood serum and plasma component; conditions: pigs, mice and human
Description: In order to prevent this flocculation and increase the efficacy of the TIM compounds, advantage was taken of the properties of TPGS (alpha tocopherol polyethylene glycol succinate). The adjuvant may also protect the TIM compounds from enzymatic degradation.

Band Intensity (PKC-β; 75 μg)	Inhibition (%) (PKC-β; 75 μg)	Band Intensity (PKC-β; 300 μg)	Inhibition (%) (PKC-β; 300 μg)	Inhibition (%) (PKC-ε; 20 μg, PKC-ε Band 1)	Relative Intensity (%) (PKC-ε; 20 μg, PKC-ε Band 1)	Inhibition (%) (PKC-ε; 20 μg, PKC-ε Band 2)	Relative Intensity (%) (PKC-ε; 20 μg, PKC-ε Band 2)	Inhibition (%) (PKC-ε; 50 μg, PKC-ε Band 1)	Relative Intensity (%) (PKC-ε; 50 μg, PKC-ε Band 1)	Inhibition (%) (PKC-ε; 50 μg, PKC-ε Band 2)	Relative Intensity (%) (PKC-ε; 50 μg, PKC-ε Band 2)	Inhibition (%) (PKC-ε; 100 μg, PKC-ε Band 1)	Relative Intensity (%) (PKC-ε; 100 μg, PKC-ε Band 1)	Inhibition (%) (PKC-ε; 100 μg, PKC-ε Band 2)	Relative Intensity (%) (PKC-ε; 100 μg, PKC-ε Band 2)	Band Intensity (PKC-βI; 100 μg)	Band Intensity (PKC-βI; 200 μg)	Band Intensity (PKC-βI; 300 μg)	Band Intensity (PKC-βII; 100 μg)	Compound	other results
1.900	0.0%	1.900	0.0%	99.0%	0.12%	100.0%	0.0%	100.0%	0.0%	100.0%	0.0%	100.0%	0.0%	100.0%	0.0%	0.0	0.0	0.0	0.0	CC[C@H](C)[C@H](NC(=O)[C@H](CO)NC(=O)[C@@H](NC(=O)CNC(=O)[C@@H](NC(=O)[C@H](CC(C)C)NC(=O)[C@H](CC(N)=O)NC(=O)[C@H](CCC(N)=O)NC(=O)[C@H](C)NC(=O)[C@H](CC(=O)O)NC(=O)CNC(=O)CNC(=O)[C@H](CCCCN)NC(=O)[C@@H](NC(=O)[C@H](CCC(=O)O)NC(=O)[C@H](CCC(N)=O)NC(=O)[C@@H](NC(=O)CNC(=O)[C@H](CCCCN)NC(=O)[C@H](C)NC(C)=O)[C@@H](C)CC)C(C)C)[C@@H](C)CC)[C@@H](C)CC)C(N)=O [PRE 3] (Ac-AKGIQEVKGGDAQNLIGISI-NH2)	remaining activity at 0.075 mg (PKC-β; 75 μg, read-out: Relative Intensity (%)): 102%; remaining activity at 0.3 mg (PKC-β; 300 μg, read-out: Relative Intensity (%)): 102%; Band Intensity (PKC-β; 600 μg): 1.847; Inhibition (%) (PKC-β; 600 μg): 0.0%; remaining activity at 0.6 mg (PKC-β; 600 μg, read-out: Relative Intensity (%)): 99.6%; Relative Intensity (%) (PKC-βI; 200 μg, Protocol B): 0.0%; Band Intensity (PKC-βII; 200 μg): 0.0; Band Intensity (PKC-βII; 300 μg): 0.0; Band Intensity (PKC-α [1]; 75 μg): 0.889; Band Intensity (PKC-α [1]; 300 μg): 0.922; Band Intensity (PKC-α [2]; 600 μg): 0.888; Band Intensity (PKC-α [2]; 3.75 mg): 0.600; Band Intensity (PKC-α [2]; 5.25 mg): 0.603; Band Intensity (PKC-α [2]; 7.5 mg): 0.609
–	–	–	–	42.9%	57.1%	46.6%	53.33%	100.0%	0.0%	100.0%	0.0%	100.0%	0.0%	100.0%	0.0%	112.5	0.0	0.0	69.58	CC[C@H](C)[C@H](NC(=O)[C@H](CO)NC(=O)[C@@H](NC(=O)CNC(=O)[C@@H](NC(=O)[C@H](CC(C)C)NC(=O)[C@H](CC(N)=O)NC(=O)[C@H](CCC(N)=O)NC(=O)[C@H](C)NC(=O)[C@H](CC(=O)O)NC(=O)[C@H](CCCCN)NC(C)=O)[C@@H](C)CC)[C@@H](C)CC)C(N)=O [PRE 4, Ac-KDAQNLIGISI-NH2] (Ac-KDAQNLIGISI-NH2)	Band Intensity (PKC-βII; 200 μg): 0.0; Band Intensity (PKC-βII; 300 μg): 0.0
–	–	–	–	–	–	–	–	–	–	–	–	–	–	–	–	–	–	–	–	CC[C@H](C)[C@H](NC(=O)[C@H](CO)NC(=O)[C@@H](NC(=O)CNC(=O)[C@@H](NC(=O)[C@H](CC(C)C)NC(=O)[C@H](CC(N)=O)NC(=O)[C@H](CCC(N)=O)NC(=O)[C@H](C)NC(=O)[C@H](CC(=O)O)NC(=O)[C@H](CCCCN)NC(=O)CNC(=O)CNC(=O)CNC(=O)CNC(=O)CNC(=O)CNC(=O)CNC(=O)[C@H](CC(C)C)NC(=O)[C@H](CCCNC(=N)N)NC(=O)[C@H](Cc1ccccc1)NC(=O)[C@H](CCCCNC(=O)CN(CCN)C(=O)Cn1cnc2c(N)ncnc21)NC(=O)[C@H](CCCNC(=N)N)NC(=O)[C@H](CCCNC(=N)N)NC(=O)[C@H](Cc1ccccc1)NC(C)=O)[C@@H](C)CC)[C@@H](C)CC)C(N)=O [TIM 10] (Ac-FRRK(PNA(A))FRLGGGGGGGKDAQNLIGISI-NH2)	effect on normal lung cells relative to H661 [3]: less affected; no observed adverse effect level ([4]; IV study): 250 μg per mouse; toxic effects ([4]; topically or orally): No toxic effects were observed at any dose; flocculation of a component of blood serum and plasma [5]: cause flocculation
0.825	28.9%	0.528	54.5%	–	–	–	–	–	–	–	–	–	–	–	–	–	–	–	–	RRKKGGKDFVVKR [PRE 1]	Relative Intensity (%) (PKC-β; 75 μg): 71.1%; Relative Intensity (%) (PKC-β; 300 μg): 45.5%; Band Intensity (PKC-α [1]; 75 μg): 1.040; Inhibition (%) (PKC-α [1]; 75 μg): 50.2%; Relative Intensity (%) (PKC-α [1]; 75 μg): 49.8%; Band Intensity (PKC-α [1]; 300 μg): 0.771; Inhibition (%) (PKC-α [1]; 300 μg): 63.1%; Relative Intensity (%) (PKC-α [1]; 300 μg): 36.9%
